Assay results: patent US10973771B2, “Method of making particles for use in a pharmaceutical composition” (VECTURA LIMITED, priority 2000, dated 2021)

Experiment: Fine particle fraction, capsule fired from twin stage impinger (TSI)
Format: physicochemical
Conditions: 20mg capsule fired from a twin stage impinger
Experimental: The 3:1 and the 19:1 blends were then each loaded into a 20mg capsule and fired from a twin stage impinger. A sample of unprocessed salbutamol sulphate was also fired from the TSI to provide a comparison.

Substance: salbutamol sulphate
- Fine Particle Fraction %: 28%
